ChEMBL document CHEMBL6134843, “HDAC11 Inhibition as a Potential Therapeutic Strategy for AML: Target Identification, Lead Discovery, Antitumor Potency, and Mechanism Investigation” (J Med Chem, 2025)
Active and inactive are the calls of the source. The rule behind the calls is not given here.

What was measured:
U-937 [1] = assay: Induction of ferroptosis in human U-937 cells assessed as increase in lipid peroxidation accumulation at 5 uM incubated for 48 hrs in presence of ferrostatin-1 by C11-BODIPY 581/591 staining based flow cytometry analysis; format: functional, cell-based
[2] = Antitumor activity against mouse MLL-AF9 cells allografted in female C57BL/6 mouse model assessed as GFP positive leukemic cells in peripheral blood at 50 mg/kg, ip administered once daily for 32 days by FITC staining based analysis (reference value: 72.5 %); format: functional; conditions: time 32 day
[3] = Induction of cell apoptosis in human THP-1 cells at 5 uM incubated for 48 hrs by Annexin V/DAPI staining based flow cytometry analysis relative to control; format: functional
[4] = Half life in ICR(CD-1) mouse at 5 mg/kg, iv treated up to 24 hrs by LC-MS/MS analysis; format: ADME, organism-based; conditions: in vivo
OCI-AML2 [5] = assay: Induction of cell cycle arrest in human OCI-AML2 cells assessed as accumulation of cells at G1 phase at 5 uM incubated for 48 hrs by EdU/DAPI staining based flow cytometry analysis; format: functional
[6] = Toxicity in female C57BL/6 mouse model assessed as increase in survival rate at 50 mg/kg, ip administered once daily in presence of cytarabine by Kaplan Mayer survival analysis; format: organism-based; conditions: in vivo
MLL-AF9 [7] = assay: Antitumor activity against mouse MLL-AF9 cells allografted in female C57BL/6 mouse model assessed as reduction in splenomegaly at 50 mg/kg, ip administered once daily for 23 days; format: functional, organism-based; conditions: time 23.0 day
[8] = test system: Acute myeloid leukemic cell; assay: Induction of ferroptosis in human Acute myeloid leukemic cells assessed as upregulation of HMOX1 mRNA level by RT-qPCR analysis; format: functional, cell-based
OCI-AML2 [9] = assay: Induction of ferroptosis in human OCI-AML2 cells assessed as increase in lipid peroxidation level incubated for 48 hrs by C11-BODIPY 581/591 staining based flow cytometry analysis; format: functional, cell-based; conditions: dose 2.5-10 µM
[10] = AUC (0 to infinity) in ICR(CD-1) mouse at 5 mg/kg, iv treated up to 24 hrs by LC-MS/MS analysis; format: ADME, organism-based; conditions: in vivo
U-937 [11] = assay: Induction of ferroptosis in human U-937 cells assessed as increase in ROS generation at 5 uM incubated for 48 hrs in presence of ferrostatin-1 by DCFH-DA staining based flow cytometry analysis; format: functional, cell-based
U-937 [12] = assay: Effect on TP53 gene expression in human U-937 cells at 10 uM incubated for 48 hrs by RT-qPCR; format: functional, cell-based
[13] = Antitumor activity against mouse MLL-AF9 cells allografted in female C57BL/6 mouse model assessed as GFP positive leukemic cells in peripheral blood at 50 mg/kg, ip administered once daily for 26 days in presence of cytarabine by FITC staining based analysis (reference value: 30.6 %); format: functional; conditions: time 26 day
U-937 [14] = assay: Antiproliferative activity in human U-937 cells assessed as suppression of cell growth at 10 uM in presence of Zinc protoporphyrin by trypan blue staining based analysis; format: functional
U-937 [15] = assay: Upregulation of Nrf2 protein level in human U-937 cells at 2.5 to 10 uM incubated for 48 hrs by Western blot analysis; format: functional, cell-based; conditions: dose 2.5-10 µM
U-937 [16] = assay: Induction of ferroptosis in human U-937 cells assessed as increase in lipid peroxidation at 10 uM in presence of Zinc protoporphyrin by flow cytometry analysis; format: functional, cell-based
[17] = Toxicity in female C57BL/6 mouse model assessed as change in body weight at 50 mg/kg, ip administered once daily in presence of cytarabine; format: organism-based; conditions: in vivo
[18] = Toxicity in female C57BL/6 mouse assessed as drug tolerance at 50 mg/kg, ip administered once daily in presence of cytarabine; format: organism-based; conditions: in vivo
[19] = test system: Acute myeloid leukemic cell; assay: Induction of ferroptosis in human Acute myeloid leukemic cells assessed as upregulation of FTH1 mRNA level by RT-qPCR analysis; format: functional, cell-based
U-937 [20] = assay: Induction of ferroptosis in human U-937 cells assessed as increase in malondialdehyde level at 5 uM incubated for 48 hrs; format: functional, cell-based
OCI-AML2 [21] = assay: Induction of ferroptosis in human OCI-AML2 cells assessed as increase in malondialdehyde level at 5 uM incubated for 48 hrs in presence of ferrostatin-1; format: functional, cell-based
[22] = Half life in ICR(CD-1) mouse at 50 mg/kg, ip treated up to 24 hrs by LC-MS/MS analysis; format: ADME, organism-based; conditions: in vivo
U-937 [23] = assay: Induction of cell differentiation in human U-937 cells assessed as increase in CD14 expression at 5 uM incubated for 48 hrs by flow cytometry analysis; format: functional, cell-based
OCI-AML2 [24] = assay: Induction of ferroptosis in human OCI-AML2 cells assessed as increase in lipid peroxidation accumulation at 5 uM incubated for 48 hrs in presence of ferrostatin-1 by C11-BODIPY 581/591 staining based flow cytometry analysis; format: functional, cell-based
U-937 [25] = assay: Induction of ferroptosis in human U-937 cells assessed as increase in ferrous ion accumulation incubated for 48 hrs by RhoNox-1 staining based flow cytometry analysis; format: functional, cell-based; conditions: dose 2.5-10 µM
[26] = MRT (0 to infinity) in ICR(CD-1) mouse at 5 mg/kg, iv treated up to 24 hrs by LC-MS/MS analysis; format: ADME, organism-based; conditions: in vivo
MOLM-13 = assay: Antiproliferative activity against human MOLM-13 cells assessed as cell growth inhibition incubated for 2 days by CCK-8 assay; conditions: MOLM-13, 48 h
U-937 [27] = assay: Effect on CDK6 gene expression in human U-937 cells at 10 uM incubated for 48 hrs by RT-qPCR; format: functional, cell-based
OCI-AML2 [28] = assay: Induction of ferroptosis in human OCI-AML2 cells assessed as increase in ROS generation at 5 uM incubated for 48 hrs in presence of ferrostatin-1 by DCFH-DA staining based flow cytometry analysis; format: functional, cell-based
[29] = Cytotoxicity against HEK293T cells assessed as cell viability incubated for 2 days by CCK-8 assay; format: toxicity, cell-based, HEK-293T; conditions: human
[30] = Clearance in ICR(CD-1) mouse at 5 mg/kg, iv treated up to 24 hrs by LC-MS/MS analysis; format: ADME, organism-based; conditions: in vivo
[31] = target: Keap1/Nrf2 (Homo sapiens) (UniProt Q16236+Q14145); assay: Activation of Keap1-Nrf2 signaling pathway in human U-937 cells assessed as upregulation of HMOX1 at 5 uM in presence of K67 by Western blot analysis; format: cell-based
U-937 [32] = assay: Antiproliferative activity against human U-937 cells assessed as suppression of cell growth at 5 uM incubated for 48 hrs in presence of K67 by trypan blue staining based analysis; format: functional
MLL-AF9 [33] = assay: Antitumor activity against mouse MLL-AF9 cells allografted in female C57BL/6 mouse model assessed as reduction in hepatomegaly at 50 mg/kg, ip administered once daily for 23 days in presence of cytarabine; format: functional, organism-based; conditions: time 23.0 day
U-937 [34] = assay: Induction of cell cycle arrest in human U-937 cells assessed as accumulation of cells at G1 phase at 5 uM incubated for 48 hrs by EdU/DAPI staining based flow cytometry analysis; format: functional
[35] = test system: Acute myeloid leukemic cell; assay: Induction of ferroptosis in human Acute myeloid leukemic cells assessed as upregulation of TFRC mRNA level by RT-qPCR analysis; format: functional, cell-based
[36] = AUC (0 to infinity) in ICR(CD-1) mouse at 50 mg/kg, ip treated up to 24 hrs by LC-MS/MS analysis; format: ADME, organism-based; conditions: in vivo

Chain of Keap1/Nrf2 (Homo sapiens) (Q14145 whole entry, looked up): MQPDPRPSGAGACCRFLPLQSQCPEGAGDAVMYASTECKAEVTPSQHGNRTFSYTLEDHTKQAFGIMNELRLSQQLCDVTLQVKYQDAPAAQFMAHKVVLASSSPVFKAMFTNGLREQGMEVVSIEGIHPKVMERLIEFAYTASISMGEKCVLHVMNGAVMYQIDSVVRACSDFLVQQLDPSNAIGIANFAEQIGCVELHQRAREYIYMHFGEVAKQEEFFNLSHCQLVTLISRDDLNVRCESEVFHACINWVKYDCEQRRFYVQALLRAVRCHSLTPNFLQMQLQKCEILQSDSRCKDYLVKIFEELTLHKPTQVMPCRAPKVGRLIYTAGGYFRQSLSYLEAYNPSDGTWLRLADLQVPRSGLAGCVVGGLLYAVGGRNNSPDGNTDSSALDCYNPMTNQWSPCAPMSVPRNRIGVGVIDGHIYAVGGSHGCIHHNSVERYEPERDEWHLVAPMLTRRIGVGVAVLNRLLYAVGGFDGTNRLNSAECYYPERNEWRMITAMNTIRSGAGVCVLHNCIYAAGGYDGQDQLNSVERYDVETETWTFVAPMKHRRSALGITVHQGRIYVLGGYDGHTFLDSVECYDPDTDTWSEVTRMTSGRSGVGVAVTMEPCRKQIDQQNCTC
Chain of Keap1/Nrf2 (Homo sapiens) (Q16236 whole entry, looked up): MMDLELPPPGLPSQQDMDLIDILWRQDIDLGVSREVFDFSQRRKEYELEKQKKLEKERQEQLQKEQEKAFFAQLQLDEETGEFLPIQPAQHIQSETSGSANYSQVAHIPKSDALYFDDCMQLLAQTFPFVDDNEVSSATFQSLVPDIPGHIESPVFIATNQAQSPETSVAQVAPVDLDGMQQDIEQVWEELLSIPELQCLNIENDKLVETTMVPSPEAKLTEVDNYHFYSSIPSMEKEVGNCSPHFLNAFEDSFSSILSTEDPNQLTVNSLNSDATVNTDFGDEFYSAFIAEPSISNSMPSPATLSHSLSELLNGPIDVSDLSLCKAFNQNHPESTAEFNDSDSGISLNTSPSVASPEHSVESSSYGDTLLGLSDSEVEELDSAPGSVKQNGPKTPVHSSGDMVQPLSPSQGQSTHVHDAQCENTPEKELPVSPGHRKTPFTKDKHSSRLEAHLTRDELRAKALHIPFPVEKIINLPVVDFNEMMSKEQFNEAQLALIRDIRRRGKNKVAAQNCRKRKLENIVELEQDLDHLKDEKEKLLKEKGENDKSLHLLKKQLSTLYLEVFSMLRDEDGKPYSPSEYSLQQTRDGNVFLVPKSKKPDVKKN

Which Activity (U-937 [1]) does the source give for `O=C(NO)c1cccc2[nH]c(C#Cc3cccc(C(F)(F)F)c3)cc12` here?
Its Activity is “inactive”.

And the Activity [2]?
Its Activity is 17.2%.

And the Activity [3]?
The Activity was roughly 20%.

What about the half-life [4] of the same molecule?
The half-life was 0.82 h.

What about the Activity (OCI-AML2 [5]) of the same molecule?
The Activity was “Dose-dependent-effect”.

What about the Activity [6] of the same molecule?
Its Activity is “Non-toxic”.

What about the Activity (MLL-AF9 [7]) of the same molecule?
The Activity was “Active”.

What about the Activity [8] of the same molecule?
The Activity was “Active”.

What about the Activity (OCI-AML2 [9]) of the same molecule?
The Activity was “Dose-dependent-effect”.

And the AUC(0-inf) [10]?
The AUC(0-inf) was 625 ng·h/mL.

What about the Activity (U-937 [11]) of the same molecule?
Its Activity is “inactive”.

What about the Activity (U-937 [12]) of the same molecule?
Its Activity is “Active”.

What about the Activity [13] of the same molecule?
Its Activity is 1.74%.

What about the Activity (U-937 [14]) of the same molecule?
Its Activity is “inactive”.

And the Activity (U-937 [15])?
Its Activity is “Active”.

And the Activity (U-937 [16])?
The Activity was “Active”.

What about the Activity [17] of the same molecule?
The Activity was “Non-toxic”.

What about the Activity [18] of the same molecule?
Its Activity is “Non-toxic”.

And the Activity [19]?
The Activity was “Active”.

What about the Activity (U-937 [20]) of the same molecule?
Its Activity is “Active”.

And the Activity (OCI-AML2 [21])?
Its Activity is “inactive”.

And the half-life [22]?
Its half-life is 8.95 h.

And the Activity (U-937 [23])?
Its Activity is “Active”.

What about the Activity (OCI-AML2 [24]) of the same molecule?
Its Activity is “inactive”.

And the Activity (U-937 [25])?
Its Activity is “Dose-dependent-effect”.

And the MRT inf [26]?
Its MRT inf is 1.27 h.

What about the IC50 (MOLM-13) of the same molecule?
The IC50 was no more than 10 µM.

And the Activity (U-937 [27])?
The Activity was “Active”.

What about the Activity (OCI-AML2 [28]) of the same molecule?
The Activity was “inactive”.

What about the IC50 at 2 days [29] of the same molecule?
The IC50 at 2 days was 80 µM.

And the clearance [30]?
Its clearance is 134 mL/min/kg.

What about the Activity [31] of the same molecule?
The Activity was “inactive”.

What about the Activity (U-937 [32]) of the same molecule?
Its Activity is “inactive”.

What about the Activity (MLL-AF9 [33]) of the same molecule?
The Activity was “Active”.

And the Activity (U-937 [34])?
Its Activity is “Dose-dependent-effect”.

What about the Activity [35] of the same molecule?
The Activity was “Active”.

And the AUC(0-inf) [36]?
The AUC(0-inf) was 2000 ng·h/mL.
